Laboratory results from patent US10669269B2, “Substituted N-(1H-indazol-4-yl)imidazo[1,2-a]pyridine-3-carboxamide compounds as type III receptor tyrosine kinase inhibitors” (ARRAY BIOPHARMA INC., priority 2010, dated 2020).

Columns and labels:
[1] = molecular target: T1, cFMS (Homo sapiens, UniProt P07333); assay: cFMS Cell-Based Assay (Example C); settings: averaged IC50; phospho-cFMS in THP-1 cells stimulated with 250 ng/mL recombinant human MCSF; read-out: cFMS Cell ELISA IC50
T1 construct: THP-1 cells (human acute monocytic leukemia cell line) were serum-starved for 4 hours; endogenous in cells; host or cells: THP-1 cells (human acute monocytic leukemia cell line)
How it was run: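 THP-1 cells serum-starved 4 h, then treated 1 h with compound (9-point, 3-fold series, top dose typically 5,000 nM) at 37 °C, then stimulated 1 min with 250 ng/mL recombinant human MCSF. Phospho-cFMS in lysates quantified by capture ELISA against a purified phospho-protein standard curve. IC50 at 50 percent of control, 4-parameter logistic fit.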

[2] = molecular target: T2, PDGFR beta (Homo sapiens, UniProt P09619); assay: Phospho PDGFR Cell Assay, sandwich ELISA (Example A); assay type: cell-based; settings: averaged IC50, PDGFR beta phosphorylation in HS27 human fibroblast cell line, PDGF-BB stimulation 5 minutes
T2 construct: endogenous in cells; host or cells: HS27 human fibroblast cell line
Description: Compounds were screened for inhibition of PDGFR beta phosphorylation in the HS27 human fibroblast cell line. Cells were seeded into a 96 well tissue culture plate, then incubated overnight in a 37° C., 5% CO2 incubator. The following day, cells were treated for one hour with test compound dilutions. After stimulation with PDGF-BB ligand for 5 minutes, cells were lysed and added to a sandwich ELISA plate from R&D Systems to detect levels of phospho PDGFR beta. A standard 4-parameter logistic model was fit to the inhibitor dose response curves, with the IC50 being defined as the concentration of inhibitor giving 50 percent of control (POC).

[3] = molecular target: T3, c-KIT (Homo sapiens, UniProt P10721); assay: c-KIT Cell-Based Assay (Example D); settings: averaged IC50; phospho-c-KIT in M-07e cells stimulated with 150 ng/ml recombinant human SCF; read-out: cKIT Cell ELISA IC50
T3 construct: M-07e cells (human acute megakaryoblastic leukemia cell line) were serum-starved for 4 hours; endogenous in cells; host or cells: M-07e cells (human acute megakaryoblastic leukemia cell line)
How it was run: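 M-07e cells serum-starved 4 h, treated 1 h with compound (9-point, 3-fold dilutions, top dose typically 5,000 nM) at 37° C, then stimulated 4 min with 150 ng/ml SCF. Phospho-c-KIT in lysates quantified by ELISA against a standard curve; IC50 from 4-parameter logistic fit as 50% of control.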

[4] = molecular target: T2, PDGFR beta; assay: Phospho PDGFR LICOR Cell Assay (Example B); assay type: cell-based; settings: averaged IC50; PDGFR beta phosphorylation in HS27 human fibroblast cell line, PDGF-BB stimulation 10 minutes, normalized to total ERK
How it was run: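 HS27 human fibroblasts pretreated 1 h with compound, then stimulated 10 min with PDGF-BB. Fixed, permeabilized cells immunostained for phospho-PDGFRβ and total ERK and read by two-colour infrared fluorescence, with phospho signal normalized to ERK. IC50 = 50% of control from 4-parameter logistic fit.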

T3 sequence (P10721 26-976): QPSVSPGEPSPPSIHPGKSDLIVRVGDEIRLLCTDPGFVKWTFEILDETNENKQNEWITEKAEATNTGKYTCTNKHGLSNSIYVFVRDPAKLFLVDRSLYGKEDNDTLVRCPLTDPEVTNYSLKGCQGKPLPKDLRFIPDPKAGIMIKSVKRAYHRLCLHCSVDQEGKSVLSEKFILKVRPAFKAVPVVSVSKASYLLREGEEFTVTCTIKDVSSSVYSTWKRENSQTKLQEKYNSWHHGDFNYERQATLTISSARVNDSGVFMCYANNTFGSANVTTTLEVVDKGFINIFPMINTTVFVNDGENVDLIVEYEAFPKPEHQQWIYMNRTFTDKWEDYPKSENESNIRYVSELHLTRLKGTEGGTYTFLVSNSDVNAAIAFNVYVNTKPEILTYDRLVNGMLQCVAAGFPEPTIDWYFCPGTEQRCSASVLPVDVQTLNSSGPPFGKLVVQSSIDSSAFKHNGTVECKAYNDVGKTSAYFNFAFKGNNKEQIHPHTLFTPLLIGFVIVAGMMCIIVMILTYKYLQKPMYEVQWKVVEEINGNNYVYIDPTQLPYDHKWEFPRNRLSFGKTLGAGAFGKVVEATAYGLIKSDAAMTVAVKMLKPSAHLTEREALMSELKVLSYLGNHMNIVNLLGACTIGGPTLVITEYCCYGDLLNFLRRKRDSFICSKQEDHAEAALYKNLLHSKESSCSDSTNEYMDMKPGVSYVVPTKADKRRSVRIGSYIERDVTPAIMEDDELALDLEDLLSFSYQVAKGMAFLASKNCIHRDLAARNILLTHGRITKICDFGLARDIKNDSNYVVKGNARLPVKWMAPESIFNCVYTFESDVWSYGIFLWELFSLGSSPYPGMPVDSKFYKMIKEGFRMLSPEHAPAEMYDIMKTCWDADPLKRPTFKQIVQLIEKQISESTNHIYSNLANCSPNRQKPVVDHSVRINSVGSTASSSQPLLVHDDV
T2 sequence (P09619 33-1106): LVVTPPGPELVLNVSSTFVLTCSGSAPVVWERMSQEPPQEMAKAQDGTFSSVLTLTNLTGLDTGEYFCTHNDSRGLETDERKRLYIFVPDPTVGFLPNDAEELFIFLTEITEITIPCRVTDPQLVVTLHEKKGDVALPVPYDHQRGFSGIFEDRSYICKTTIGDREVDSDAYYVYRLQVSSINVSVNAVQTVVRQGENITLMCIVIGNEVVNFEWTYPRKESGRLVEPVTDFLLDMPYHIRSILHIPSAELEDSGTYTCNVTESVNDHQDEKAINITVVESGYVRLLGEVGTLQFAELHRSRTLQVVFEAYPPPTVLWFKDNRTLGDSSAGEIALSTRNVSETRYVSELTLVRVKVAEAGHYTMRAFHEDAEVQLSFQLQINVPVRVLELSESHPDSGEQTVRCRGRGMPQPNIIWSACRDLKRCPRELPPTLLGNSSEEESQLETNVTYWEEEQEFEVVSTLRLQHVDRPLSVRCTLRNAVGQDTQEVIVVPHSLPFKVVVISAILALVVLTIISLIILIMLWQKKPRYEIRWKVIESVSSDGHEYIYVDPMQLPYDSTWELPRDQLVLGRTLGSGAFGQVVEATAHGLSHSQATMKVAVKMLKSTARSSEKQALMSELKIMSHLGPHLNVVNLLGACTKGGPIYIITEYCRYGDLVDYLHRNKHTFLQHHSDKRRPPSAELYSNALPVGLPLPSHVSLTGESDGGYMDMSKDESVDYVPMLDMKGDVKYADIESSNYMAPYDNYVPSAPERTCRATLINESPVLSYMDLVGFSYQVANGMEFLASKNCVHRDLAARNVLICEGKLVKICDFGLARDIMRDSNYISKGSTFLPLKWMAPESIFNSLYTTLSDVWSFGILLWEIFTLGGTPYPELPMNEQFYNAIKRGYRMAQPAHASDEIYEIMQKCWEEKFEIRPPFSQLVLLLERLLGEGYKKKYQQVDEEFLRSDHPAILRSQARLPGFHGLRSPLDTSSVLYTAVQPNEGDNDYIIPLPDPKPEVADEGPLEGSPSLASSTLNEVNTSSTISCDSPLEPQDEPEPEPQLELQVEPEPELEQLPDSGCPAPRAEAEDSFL
T1 sequence (P07333 20-972): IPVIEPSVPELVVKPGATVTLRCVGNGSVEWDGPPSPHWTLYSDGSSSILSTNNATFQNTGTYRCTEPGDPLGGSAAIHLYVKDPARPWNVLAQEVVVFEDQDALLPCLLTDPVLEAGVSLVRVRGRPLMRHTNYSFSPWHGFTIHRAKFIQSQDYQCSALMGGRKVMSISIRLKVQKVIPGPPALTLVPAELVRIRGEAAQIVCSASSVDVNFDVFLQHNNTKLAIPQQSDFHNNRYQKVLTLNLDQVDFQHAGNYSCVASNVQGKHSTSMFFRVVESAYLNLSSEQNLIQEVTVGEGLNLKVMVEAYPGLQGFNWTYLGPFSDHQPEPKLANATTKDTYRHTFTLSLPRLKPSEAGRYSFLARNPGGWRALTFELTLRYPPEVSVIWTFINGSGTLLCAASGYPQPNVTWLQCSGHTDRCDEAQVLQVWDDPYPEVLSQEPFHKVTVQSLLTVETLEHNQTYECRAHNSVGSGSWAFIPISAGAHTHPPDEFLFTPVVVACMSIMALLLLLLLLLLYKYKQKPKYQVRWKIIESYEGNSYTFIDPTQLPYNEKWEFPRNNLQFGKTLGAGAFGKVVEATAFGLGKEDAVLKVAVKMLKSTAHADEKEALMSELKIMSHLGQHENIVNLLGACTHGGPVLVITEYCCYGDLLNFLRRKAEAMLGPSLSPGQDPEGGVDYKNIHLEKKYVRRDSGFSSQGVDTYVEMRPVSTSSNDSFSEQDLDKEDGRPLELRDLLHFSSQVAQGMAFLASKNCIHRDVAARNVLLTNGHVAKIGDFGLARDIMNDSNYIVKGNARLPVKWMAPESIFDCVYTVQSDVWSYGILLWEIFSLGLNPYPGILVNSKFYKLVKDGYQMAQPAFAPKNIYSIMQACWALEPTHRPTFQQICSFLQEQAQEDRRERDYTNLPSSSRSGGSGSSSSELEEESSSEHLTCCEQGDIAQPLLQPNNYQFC

Structure (SMILES)	IC50 [1]	IC50 [2]	IC50 [3]	IC50 [4]
Cc1nn(Cc2cccc(C(C)C)n2)c2cccc(NC(=O)c3cnc4cc(OCCN5C[C@@H](C)N(C)[C@@H](C)C5)ccn34)c12 [Example 7, N-(1-((6-Isopropylpyridin-2-yl)methyl)-3-methyl-1H-indazol-4-yl)-7-(2-((3S,5R)-3,4,5-trimethylpiperazin-1-yl)ethoxy)imidazo[1,2-a]pyridine-3-carboxamide]	20.8 nM	40.9 nM	43.7 nM	–
COCCN1CCN(CCOc2ccn3c(C(=O)Nc4cccc5c4c(C)nn5Cc4cccc(C5CC5)n4)cnc3c2)CC1 [Example 20, N-(1-((6-cyclopropylpyridin-2-yl)methyl)-3-methyl-1H-indazol-4-yl)-7-(2-(4-(2-methoxyethyl)piperazin-1-yl)ethoxy)imidazo[1,2-a]pyridine-3-carboxamide]	10.8 nM	55.9 nM	76.1 nM	–
CC(C)N1CCN(CCOc2ccn3c(C(=O)Nc4cccc5c4c(Cl)nn5Cc4cccc(C5CC5)n4)cnc3c2)CC1 [Example 21, N-(3-chloro-1-((6-cyclopropylpyridin-2-yl)methyl)-1H-indazol-4-yl)-7-(2-(4-isopropylpiperazin-1-yl)ethoxy)imidazo[1,2-a]pyridine-3-carboxamide]	12 nM	124 nM	46.6 nM	–
CC(C)N1CCN(CCOc2ccn3c(C(=O)Nc4cccc5c4c(F)nn5Cc4cccc(C5CC5)n4)cnc3c2)CC1 [Example 22, N-(1-((6-cyclopropylpyridin-2-yl)methyl)-3-fluoro-1H-indazol-4-yl)-7-(2-(4-isopropylpiperazin-1-yl)ethoxy)imidazo[1,2-a]pyridine-3-carboxamide]	6.7 nM	17.6 nM	5.2 nM	–
C[C@H]1CN(CCOc2ccn3c(C(=O)Nc4cccc5c4c(Cl)nn5Cc4cccc(C5CC5)n4)cnc3c2)CCN1C [Example 23, (S)—N-(3-chloro-1-((6-cyclopropylpyridin-2-yl)methyl)-1H-indazol-4-yl)-7-(2-(3,4-dimethylpiperazin-1-yl)ethoxy)imidazo[1,2-a]pyridine-3-carboxamide]	21.1 nM	239 nM	65.7 nM	–
C[C@H]1CN(CCOc2ccn3c(C(=O)Nc4cccc5c4c(F)nn5Cc4cccc(C5CC5)n4)cnc3c2)CCN1C [Example 24, (S)—N-(1-((6-cyclopropylpyridin-2-yl)methyl)-3-fluoro-1H-indazol-4-yl)-7-(2-(3,4-dimethylpiperazin-1-yl)ethoxy)imidazo[1,2-a]pyridine-3-carboxamide]	6.8 nM	14.1 nM	6.4 nM	–
Cc1nn(Cc2cccc(C(C)(C)C)n2)c2cccc(NC(=O)c3cnc4cc(OCCN5CCN(C)[C@@H](C)C5)ccn34)c12 [Example 31, (S)—N-(1-((6-tert-butylpyridin-2-yl)methyl)-3-methyl-1H-indazol-4-yl)-7-(2-(3,4-dimethylpiperazin-1-yl)ethoxy)imidazo[1,2-a]pyridine-3-carboxamide]	102 nM	335 nM	67.1 nM	–
Cc1nn(Cc2cccc(C3CCC3)n2)c2cccc(NC(=O)c3cnc4cc(OCCN5CCN(C)[C@@H](C)C5)ccn34)c12 [Example 32, (S)—N-(1-((6-cyclobutylpyridin-2-yl)methyl)-3-methyl-1H-indazol-4-yl)-7-(2-(3,4-dimethylpiperazin-1-yl)ethoxy)imidazo[1,2-a]pyridine-3-carboxamide]	24.2 nM	66.5 nM	42.4 nM	–
Cc1nn(Cc2cccc(C3CCCC3)n2)c2cccc(NC(=O)c3cnc4cc(OCCN5CCN(C)[C@@H](C)C5)ccn34)c12 [Example 33, (S)—N-(1-((6-cyclopentylpyridin-2-yl)methyl)-3-methyl-1H-indazol-4-yl)-7-(2-(3,4-dimethylpiperazin-1-yl)ethoxy)imidazo[1,2-a]pyridine-3-carboxamide]	41.5 nM	65.8 nM	22.6 nM	–
Cc1cccc(Cn2nc(C)c3c(NC(=O)c4cnc5cc(OCCN6CCN(C)[C@@H](C)C6)ccn45)cccc32)n1 [Example 35, (S)-7-(2-(3,4-dimethylpiperazin-1-yl)ethoxy)-N-(3-methyl-1-((6-methylpyridin-2-yl)methyl)-1H-indazol-4-yl)imidazo[1,2-a]pyridine-3-carboxamide]	19.4 nM	431 nM	924 nM	–
CC(O)c1ccn2c(C(=O)Nc3cccc4c3cnn4Cc3ccccc3)cnc2c1 (stereo not drawn) [Example 147, N-(1-benzyl-1H-indazol-4-yl)-7-(1-hydroxyethyl)imidazo[1,2-a]pyridine-3-carboxamide]	72.6 nM	–	93.1 nM	399 nM
CC(c1ccn2c(C(=O)Nc3cccc4c3cnn4Cc3ccccc3)cnc2c1)N1CCOCC1 (stereo not drawn) [Example 148, N-(1-benzyl-1H-indazol-4-yl)-7-(1-morpholinoethyl)imidazo[1,2-a]pyridine-3-carboxamide]	93.1 nM	–	189 nM	994 nM
Cc1ncc(Cn2ncc3c(NC(=O)c4cnc5cc(OCCN6CCN(C)CC6)ccn45)cccc32)s1 [Example 149, 7-(2-(4-methylpiperazin-1-yl)ethoxy)-N-(1-((2-methylthiazol-5-yl)methyl)-1H-indazol-4-yl)imidazo[1,2-a]pyridine-3-carboxamide]	2.2 nM	–	4.8 nM	1 nM
Cc1cccc(Cn2ncc3c(NC(=O)c4cnc5cc(OCCN6CCN(C)CC6)ccn45)cccc32)n1 [Example 150, 7-(2-(4-methylpiperazin-1-yl)ethoxy)-N-(1-((6-methylpyridin-2-yl)methyl)-1H-indazol-4-yl)imidazo[1,2-a]pyridine-3-carboxamide]	4.6 nM	–	14.4 nM	1.7 nM
COCCOc1ccn2c(C(=O)Nc3cccc4c3cnn4CCc3ccccc3)cnc2c1 [Example 151, 7-(2-methoxyethoxy)-N-(1-phenethyl-1H-indazol-4-yl)imidazo[1,2-a]pyridine-3-carboxamide]	44.8 nM	–	37.3 nM	9 nM
N#Cc1ccn2c(C(=O)Nc3cccc4c3cnn4Cc3ccccc3)cnc2c1 [Example 152, N-(1-benzyl-1H-indazol-4-yl)-7-cyanoimidazo[1,2-a]pyridine-3-carboxamide]	117 nM	–	165 nM	296 nM
CN1CCN(CCOc2ccn3c(C(=O)Nc4cccc5c4cnn5Cc4ccccc4)cnc3c2)CC1 [Example 153, N-(1-benzyl-1H-indazol-4-yl)-7-(2-(4-methylpiperazin-1-yl)ethoxy)imidazo[1,2-a]pyridine-3-carboxamide]	14.8 nM	–	9.5 nM	5 nM
N#Cc1ccc2ncc(C(=O)Nc3cccc4c3cnn4Cc3ccccc3)n2c1 [Example 154, N-(1-benzyl-1H-indazol-4-yl)-6-cyanoimidazo[1,2-a]pyridine-3-carboxamide]	143 nM	–	150 nM	186 nM
COCCOc1ccn2c(C(=O)Nc3cccc4c3cnn4Cc3ccccc3)cnc2c1 [Example 156, N-(1-benzyl-1H-indazol-4-yl)-7-(2-methoxyethoxy)imidazo[1,2-a]pyridine-3-carboxamide]	5.7 nM	–	12.5 nM	5.7 nM
O=C(Nc1cccc2c1cnn2Cc1ccccc1)c1cnc2ccc(C(O)CO)cn12 (stereo not drawn) [Example 158, N-(1-benzyl-1H-indazol-4-yl)-6-(1,2-dihydroxyethyl)imidazo[1,2-a]pyridine-3-carboxamide]	535 nM	–	2100 nM	2400 nM
COc1ccc2ncc(C(=O)Nc3cccc4c3cnn4Cc3ccccc3)n2c1 [Example 159, N-(1-benzyl-1H-indazol-4-yl)-6-methoxyimidazo[1,2-a]pyridine-3-carboxamide]	26.6 nM	–	9.8 nM	64.3 nM
NC(=O)c1ccc2ncc(C(=O)Nc3cccc4c3cnn4Cc3ccccc3)n2c1 [Example 160, N3-(1-benzyl-1H-indazol-4-yl)imidazo[1,2-a]pyridine-3,6-dicarboxamide]	132 nM	–	868 nM	714 nM
